One block for each compound: values may come before it. Active and inactive are the calls of the source. No cut-off for these calls is given here.
Key:
RAW264.7 [1] = assay: Antiinflammatory activity against LPS-induced mouse RAW264.7 cells assessed as inhibition of NO production preincubated for 1 hr followed by LPS stimulation and measured after 24 hrs by Greiss reagent based assay; format: functional, cell-based
RAW264.7 [2] = assay: Binding affinity to MD2 in mouse RAW264.7 cells assessed as inhibition of LPS/MD2 colocalization at 10 uM preincubated for 1 hr followed by incubation with FITC-conjugated LPS for 1 hr by DAPI staining based confocal microscopy; format: cell-based; conditions: time 2.0 hrs
RAW264.7 [3] = assay: Antiinflammatory activity against LPS-induced mouse RAW264.7 cells assessed as reduction in IL-6 production at 10 uM preincubated for 1 hr followed by LPS stimulation and measured after 24 hrs by ELISA relative to control; format: functional; conditions: time 25 hrs
RAW264.7 [4] = assay: Antiinflammatory activity against LPS-induced mouse RAW264.7 cells assessed as reduction in IL-6 production preincubated for 1 hr followed by LPS stimulation and measured after 24 hrs by ELISA; format: functional, cell-based; conditions: dose 2.5-10 µM, time 25.0 hrs
RAW264.7 [5] = assay: Antiinflammatory activity against LPS-induced mouse RAW264.7 cells assessed as reduction in TNF-alpha production preincubated for 1 hr followed by LPS stimulation and measured after 24 hrs by ELISA; format: functional, cell-based; conditions: dose 2.5-10 µM, time 25.0 hrs
RAW264.7 [6] = assay: Antiinflammatory activity against LPS-induced mouse RAW264.7 cells assessed as reduction in TNF-alpha production at 10 uM preincubated for 1 hr followed by LPS stimulation and measured after 24 hrs by ELISA relative to control; format: functional; conditions: time 25 hrs
RAW264.7 [7] = assay: Antiinflammatory activity against LPS-induced mouse RAW264.7 cells assessed as downregulation of COX2 protein expression at 2.5 to 10 uM by western blot analysis; format: functional, cell-based; conditions: dose 2.5-10 µM
RAW264.7 [8] = assay: Antiinflammatory activity against LPS-induced mouse RAW264.7 cells assessed as downregulation of iNOS protein expression at 2.5 to 10 uM by western blot analysis; format: functional, cell-based; conditions: dose 2.5-10 µM
RAW264.7 [9] = assay: Inhibition of MD2 in LPS-stimulated mouse RAW 264.7 cells assessed as reduction in p65 phosphorylation by western blot analysis; conditions: dose 2.5-10 µM
RAW264.7 [10] = assay: Inhibition of MD2 in LPS-stimulated mouse RAW 264.7 cells assessed as reduction in IKKbeta phosphorylation by western blot analysis; conditions: dose 2.5-10 µM
RAW264.7 [11] = assay: Inhibition of MD2 in LPS-stimulated mouse RAW264.7 cells assessed as reduction in p65 nuclear translocation by measuring red fluorescence intensity in nucleus at 10 uM preincubated for 1 hr followed by LPS stimulation and measured after 6 hrs by DAPI staining based confocal microscopy; conditions: time 7.0 hrs
RAW264.7 [12] = assay: Downregulation of TLR4 expression in mouse RAW264.7 cells at 2.5 to 10 uM by western blot analysis; format: functional, cell-based; conditions: dose 2.5-10 µM
RAW264.7 [13] = assay: Downregulation of MD2 expression in mouse RAW264.7 cells at 2.5 to 10 uM by western blot analysis; format: functional, cell-based; conditions: dose 2.5-10 µM
RAW264.7 [14] = assay: Inhibition of MD2 in LPS-stimulated mouse RAW264.7 cells assessed as reduction in ERK phosphorylation at 2.5 to 10 uM measured by immunoblot analysis; conditions: dose 2.5-10 µM
RAW264.7 [15] = assay: Inhibition of MD2 in LPS-stimulated mouse RAW264.7 cells assessed as reduction in JNK phosphorylation at 2.5 to 10 uM measured by immunoblot analysis; conditions: dose 2.5-10 µM
RAW264.7 [16] = assay: Inhibition of MD2 in LPS-stimulated mouse RAW264.7 cells assessed as reduction in p38 phosphorylation at 2.5 to 10 uM measured by immunoblot analysis; conditions: dose 2.5-10 µM
RAW264.7 [17] = assay: Antiinflammatory activity against LPS-induced MD2-knockdown mouse RAW264.7 cells assessed as reduction in TNF-alpha secretion pretreated for 1 hr followed by LPS stimulation and measured after 24 hrs by ELISA; format: functional, cell-based; conditions: time 25.0 hrs
[18] = molecular target: T1, Toll-like receptor 4 (Mus musculus) (UniProt Q9QUK6); assay: Binding affinity to TLR4 in mouse RAW264.7 cells assessed as inhibition of LPS/TLR4 colocalization at 10 uM preincubated for 1 hr followed by incubation with FITC-conjugated LPS for 1 hr by DAPI staining based confocal microscopy; format: cell-based; conditions: time 2.0 hrs
T1 sequence (whole entry): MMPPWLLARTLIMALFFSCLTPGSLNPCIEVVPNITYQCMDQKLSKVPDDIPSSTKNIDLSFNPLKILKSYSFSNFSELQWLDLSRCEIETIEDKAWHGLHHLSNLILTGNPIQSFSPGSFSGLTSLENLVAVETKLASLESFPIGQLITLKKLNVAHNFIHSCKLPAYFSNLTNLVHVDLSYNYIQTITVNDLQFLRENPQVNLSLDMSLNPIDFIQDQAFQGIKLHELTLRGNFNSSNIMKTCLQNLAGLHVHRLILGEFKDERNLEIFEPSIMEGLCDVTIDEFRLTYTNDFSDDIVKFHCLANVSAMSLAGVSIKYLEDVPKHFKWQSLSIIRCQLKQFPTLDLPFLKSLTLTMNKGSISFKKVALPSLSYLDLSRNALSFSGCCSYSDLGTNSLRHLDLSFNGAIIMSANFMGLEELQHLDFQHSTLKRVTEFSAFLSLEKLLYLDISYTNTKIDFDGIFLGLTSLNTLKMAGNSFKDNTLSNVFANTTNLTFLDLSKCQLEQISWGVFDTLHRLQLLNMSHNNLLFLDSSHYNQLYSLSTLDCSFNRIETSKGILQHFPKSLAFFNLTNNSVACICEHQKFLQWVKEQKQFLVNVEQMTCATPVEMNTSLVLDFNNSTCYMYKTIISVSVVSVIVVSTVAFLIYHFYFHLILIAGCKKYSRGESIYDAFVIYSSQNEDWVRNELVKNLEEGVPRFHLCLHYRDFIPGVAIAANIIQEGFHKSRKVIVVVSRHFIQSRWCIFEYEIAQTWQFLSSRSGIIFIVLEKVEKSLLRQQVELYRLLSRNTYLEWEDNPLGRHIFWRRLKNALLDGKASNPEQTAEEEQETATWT

RAW264.7 [19] = assay: Antiinflammatory activity against LPS-induced MD2-knockdown mouse RAW264.7 cells assessed as reduction in TNF-alpha mRNA expression by qRT-PCR analysis; format: functional, cell-based
RAW264.7 [20] = assay: Antiinflammatory activity against LPS-induced MD2-knockdown mouse RAW264.7 cells assessed as reduction in IL-6 mRNA expression by qRT-PCR analysis; format: functional, cell-based
RAW264.7 [21] = assay: Antiinflammatory activity against LPS-induced MD2-knockdown mouse RAW264.7 cells assessed as reduction in COX-2 mRNA expression by qRT-PCR analysis; format: functional, cell-based
RAW264.7 [22] = assay: Antiinflammatory activity against LPS-induced MD2-knockdown mouse RAW264.7 cells assessed as reduction in iNOS mRNA expression by qRT-PCR analysis; format: functional, cell-based
RAW264.7 [23] = assay: Inhibition of MD2 in mouse RAW264.7 cells assessed as reduction in LPS-induced TLR4/MD2 complex formation preincubated for 30 mins followed by LPS stimulation for 30 mins by co-immunoprecipitation analysis; format: cell-based; conditions: dose 2.5-10 µM, time 60.0 min
Homo sapiens [24] = species on record: Homo sapiens; assay: Binding affinity to MD2 (unknown origin) assessed as association constant by surface plasmon resonance assay
Homo sapiens [25] = species on record: Homo sapiens; assay: Binding affinity to MD2 (unknown origin) assessed as dissociation constant by surface plasmon resonance assay
[26] = Binding affinity to MD2 (unknown origin) assessed as equilibrium dissociation constant by surface plasmon resonance assay; parameters: species or system Homo sapiens

Structure (SMILES): C=CC(C)(C)c1[nH]c2cccc3c2c1C[C@@H]1[C@@H]3[C@@H](OC(C)=O)[C@H](C)CN1C
IC50 (RAW264.7 [1]): 22.8 µM

Structure (SMILES): C=CC(C)(C)C(=O)Nc1cccc2c1C(=O)C[C@H]1NC[C@@H](C)[C@H](OC(C)=O)[C@H]21
IC50 (RAW264.7 [1]): 53.3 µM

Structure (SMILES): C=CC(C)(C)C(=O)Nc1cccc2c1C(=O)C[C@@H]1[C@@H]2[C@@H](OC(C)=O)[C@H](C)CN1C
IC50 (RAW264.7 [1]): 43.2 µM

Structure (SMILES): C=CC(C)(C)c1[nH]c2cccc3c2c1C[C@H]1NC[C@@H](C)[C@H](OC(C)=O)[C@H]31
IC50 (RAW264.7 [1]): 60.4 µM

Stronger by IC50 (RAW264.7 [1]), values ahead:

IC50 (RAW264.7 [1]): 11 µM
Structure (SMILES): COc1ccc2c(c1)c(CC(=O)O)c(C)n2C(=O)c1ccc(Cl)cc1 [INDOMETHACIN]

IC50 (RAW264.7 [1]): 9.47 µM
Structure (SMILES): C=CC(C)(C)C(=O)Nc1cccc2c3cc(C)cn(C)c-3cc(=O)c12

IC50 (RAW264.7 [1]): 7.83 µM
Structure (SMILES): C=CC(C)(C)C(=O)Nc1cccc2c1C(=O)C[C@H]1NC[C@H](C)[C@@H](OC(C)=O)[C@@H]21

IC50 (RAW264.7 [1]): 3.48 µM | Activity [18]: inactive | Ka (Homo sapiens [24]): 373 M⁻¹ s⁻¹ | Kdiss (Homo sapiens [25]): 0.0054 s⁻¹ | Kd [26]: 14.5 µM
Structure (SMILES): C=CC(C)(C)C(=O)Nc1cccc2c1C(=O)C[C@@H]1[C@H]2[C@H](OC(C)=O)[C@@H](C)CN1C
Activity (RAW264.7 [2]): Active | inhibition at 10 µM (RAW264.7 [3]): 84% | Activity (RAW264.7 [4]): Dose-Dependent Effect | Activity (RAW264.7 [5]): Dose-Dependent Effect | inhibition at 10 µM (RAW264.7 [6]): 68.2% | Activity (RAW264.7 [7]): Active | Activity (RAW264.7 [8]): Active | inhibition (RAW264.7 [9]): Dose-Dependent Effect | inhibition (RAW264.7 [10]): Dose-Dependent Effect | inhibition (RAW264.7 [11]): Active | inhibition (RAW264.7 [12]): Active | inhibition (RAW264.7 [13]): Active | inhibition (RAW264.7 [14]): Active | inhibition (RAW264.7 [15]): Active | inhibition (RAW264.7 [16]): Active | Activity (RAW264.7 [17]): inactive | Activity (RAW264.7 [19]): inactive | Activity (RAW264.7 [20]): inactive | Activity (RAW264.7 [21]): inactive | Activity (RAW264.7 [22]): inactive | inhibition (RAW264.7 [23]): Dose-Dependent Effect

— ChEMBL document CHEMBL4831509, “Identification, semisynthesis, and anti-inflammatory evaluation of 2,3-seco-clavine-type ergot alkaloids from human intestinal fungus Aspergillus fumigatus CY018” (Eur J Med Chem, 2021)
